The test system of series [1] is LDL-induced monocyte chemotactic activity in cultures of human aortic endothelial cells. Kind of series: HDL-inflammatory index of HDL from treated apoE null mice. The format is in vivo. The note with it: for HDL-inflammatory index, potency relative to niclosamide: FIG. 24: salicylanilide 10:1 with 5 μg D-4F or L-4F by stomach tube, 6 hours. From the text: 11-month-old female apoE null mice were fasted during the day. At night the mice were provided chow containing or not containing additions. In the first experiment the mice were given chow alone (C) or chow supplemented with 8.0 micrograms of Niclosamide (2′,5-Dichloro-4′-nitrosalicylanilide; Niclosamide, Sigma catalog number N-3510 Page 1711 2006-2007 catalog Empirical Formula (Hill Notation): C13H8C12N2O4 Formula Weight: 327.12, CAS Number: 50-65-7 Batch 105K0666 EC 200-056-8) per gram of chow (D) or chow supplemented with 2.0 micrograms of L-4F (free base) per gram of chow (E), or chow supplemented with 8.0 micrograms of Niclosamide together with 2.0 micrograms of L-4F (free base) per gram of chow (F). The mice were only given one gram of chow per mouse (n=8 mice per group) so that they would consume all of the chow. In the morning after the chow was consumed the mice were bled and their plasma was sucrose cryopreserved and fractionated by FPLC and the HDL-containing fractions were tested for their ability to inhibit monocyte chemotactic activity induced by a standard control human LDL (A) in cultures of human aortic endothelial cells. The mouse HDL (C-J) was also compared to a standard human HDL (B) that was added at the same concentrations as the mouse HDL. The resulting monocyte chemotactic activity was normalized to the standard control LDL added alone (A). The results are plotted as the HDL-inflammatory index, which is the result of dividing the monocyte chemotactic activity measured for each condition by the monocyte chemotactic activity obtained by the standard control LDL added alone, which was normalized to 1.0 as described previously (Navab et al. (2004) J Lipid Res, 45: 993-1007).
A second experiment was performed as described for the first experiment with 8 mice in each group except that the additions to the chow were different. Chow alone in the second experiment (G) was compared to chow supplemented with 100 micrograms of Niclosamide per gram of chow (H), or supplemented with 10 micrograms of L-4F (free base) per gram of mouse chow (I), or supplemented with 10 micrograms of L-4F (free base) together with 100 micrograms of Niclosamide per gram of chow (J). As in the first experiment the mice were only given one gram of chow per mouse so that they would consume all of the chow. In the morning this second group of mice were bled and their HDL tested in the human artery wall cell culture together with the HDL from the first experiment.
Ten mg of Niclosamide was placed in a glass-glass homogenizer with mortar and round bottom pestle (Kontes Dounce Tissue grinder, K885300-0015 available from Fisher, VWR) and 200 μL of ethanol was added. The Niclosamide ethanol mixture was homogenized using 2-3 strokes and distilled water was added and the mixture further homogenized using 5-10 strokes and the volume was adjusted to 10 mL with distilled water. Serial dilutions of this mixture were made using distilled water to give the micrograms of Niclosamide shown on the x-axis, which were contained in 100 μL. L-4F (free base) was diluted with water to give 10 μg per 100 μL of water. One hundred microliters of the Niclosamide solution was given by stomach tube to each mouse in each group of twelve-month-old non-fasting female apoE null mice (n=4 per group) and immediately followed by 100 μL containing 10 μg of L-4F (free base) in water. The mice were fasted and after 7 hours they were bled and their plasma was sucrose cryopreserved. The plasma was fractionated by FPLC and the HDL-containing fractions were tested for their ability to inhibit the induction of monocyte chemotactic activity by a standard control human LDL, which was added to cultures of human aortic endothelial cells. The standard control human LDL was also added by itself or with a standard control human HDL. The values obtained by the standard control human LDL alone were normalized to 1.0. […]

The conditions of series [2]: mouse, in vivo.
Protocol: (§1) Fasted apoE null mice 6-months of age (n=4 per group) were administered by stomach tube ^14C-L-4F (21,000 dpm containing 10 micrograms of L-4F per mouse) with or without 100 micrograms of niclosamide in 200 microliters. Fasting was continued and the mice were bled at the time points shown on the X-axis and the dpm per mL plasma determined.
(§2) Fasted female apoE null mice 6-months of age (n=4 per group) were administered by stomach tube L-4F (21,000 dpm containing 10 micrograms of L-4F per mouse) with or without 100 micrograms of niclosamide in 200 μL 0.1% Tween20 in ammonium bicarbonate at pH 7.0. Fasting was continued and the mice were bled at the time points shown on the X-axis in FIG. 27 and the dpm per mL plasma determined.
For series [3] the following is noted: mouse, in vivo, 100 ug.
Protocol: as §1, §2
Series [4] is described as follows: Fate of peptides after an oral dose (degradation, association with HDL, clearance from the circulation).
Series [5] concerns inflammatory response induced by the action of HPODE oxidizing PAPC in cocultures of human artery wall cells. The settings on record: apoE null mice, drinking water 24 hours; D-4F 1 μg/ml, atorvastatin or pravastatin 0.05 mg/ml; cited from earlier work.
A short description of series [6]: Solubilization of niclosamide in water with or without L-4F. The class given is physicochemical. The settings on record: even when added in ethanol and homogenized.
Protocol: Niclosamide at 10 mg per mL was added to water, or to water containing 1.0 mg/mL L-4F (free base) and was homogenized in a glass-glass homogenizer. The solutions were stored at 4° C. for ten days and photographed
Niclosamide at 10 mg per mL was added to water, or to water containing 1.0 mg/mL L-4F (free base) and was homogenized in a glass-glass homogenizer.
For series [7] the following is noted: cited from earlier work; for solubility in water: 20° C., ethanolamine salt in distilled water.
The next series concerns aortic sinus lesion area. Kind of series: Lesion regression in old apoE null mice, six months in chow. The class given is in vivo. The note with it: FIGS. 32-34: niclosamide 2 mg and/or L-4F 200 μg/mouse/day in chow, pravastatin 50 μg/mouse/day, 26 weeks. From the text: Ninety-five female apoE null mice age 9.5 months from the UCLA breeding colony were identified. Twenty-three were sacrificed at time Zero (Group I) to establish lesion area at the start of the experiment. The remainder of the mice were divided into three groups of 24 mice each and the following additions were made to the chow for each group: Group II: Niclosamide at 2,000 micrograms/mouse/day; Group III: L-4F at 200 micrograms/mouse/day; Group IV: L-4F at 200 micrograms/mouse/day plus Niclosamide at 2,000 micrograms/mouse/day. All groups received 50 micrograms/mouse/day of pravastatin in their drinking water. At the veterinarian's request because of fighting and/or ulcerative dermatitis mice were euthanized prior to the end of the experiment as follows: 6 mice from Group II; 5 mice from Group III; 4 mice from Group IV. After six months the remaining mice were sacrificed and aortic sinus lesion area was determined as described previously (Id.).
In still another experiments, nine and half months-old female apoE null mice were divided into four groups: Group I was sacrificed to establish base line lesion area (Time Zero). Group II received niclosamide at 2 mg/mouse/day in rodent chow. Group III received L-4F at 200 μg/mouse/day in rodent chow. […] After 26 weeks the mice were sacrificed and aortic sinus lesion area was determined.

The conditions of series [8]: mouse, in vivo; cited from earlier work.
For series [9] the following is noted: mouse, in vivo. This is another data set of the same source.
Series [10] deals with LDL-induced monocyte chemotactic activity in cultures of human aortic endothelial cells. The settings on record: mice, oral, without niclosamide; human artery wall cells (Navab 2002); cited from earlier work.
The test system of series [11] is monocyte chemotactic activity in cultures of human aortic endothelial cells. Kind of series: LDL-inflammatory index of LDL from treated apoE null mice. The class given is in vivo. The settings on record: FIG. 25: co-administered with D-4F or L-4F, mice of FIG. 24.
Where [12] appears, read: FIG. 22: 10 μg peptide with or without niclosamide 10:1, pH 8.0, stomach tube, 7 hours.
[13] abbreviates: FIG. 8: female apoE null mice, overnight in chow, niclosamide 8 or 100 μg and/or L-4F 2 or 10 μg per gram of chow.

Where a name gives a salt, the structure may show the parent alone. Read-outs that look alike come from different tables or passages of the source. Residues, ends and D or L forms follow the SMILES beside them. No end group written: not given here.

In the case of `CC(=O)N[C@@H](CC(=O)O)C(=O)N[C@@H](Cc1c[nH]c2ccccc12)C(=O)N[C@@H](Cc1ccccc1)C(=O)N[C@@H](CCCCN)C(=O)N[C@@H](C)C(=O)N[C@@H](Cc1ccccc1)C(=O)N[C@@H](Cc1ccc(O)cc1)C(=O)N[C@@H](CC(=O)O)C(=O)N[C@@H](CCCCN)C(=O)N[C@H](C(=O)N[C@@H](C)C(=O)N[C@@H](CCC(=O)O)C(=O)N[C@@H](CCCCN)C(=O)N[C@@H](Cc1ccccc1)C(=O)N[C@@H](CCCCN)C(=O)N[C@@H](CCC(=O)O)C(=O)N[C@@H](C)C(=O)N[C@@H](Cc1ccccc1)C(N)=O)C(C)C` [^14C-L-4F] (Ac-DWFKAFYDKVAEKFKEAF-NH2; N-terminus and C-terminus assumed), in series [1] (FIG. 28: 10 μg 14C-L-4F with 100 μg niclosamide, 5 hours), the HDL inflammatory index entry is reported as “biologically active when given with niclosamide”. Further, in series [2], the “duration of (low) plasma levels” value was “no more than 5 minutes”, the “persistence of plasma level at a lower level” value was “up to four hours” and the “persistence of the Cmax plasma level” value was “persisted for more than an hour”. The Cmax (usually the maximum level reached in the sampled fluid or tissue) in series [3] was about 150 ng/mL.

“D-4F: 4F (SEQ ID NO:5) where one or more residues are D form amino acids (DWFKAFYDKVAEKFKEAF; also: one or more residues D-form, places not given here)”: the HDL-inflammatory index result in [1] (setting [12]) is listed as “able to render apoE null mouse HDL anti-inflammatory to a degree comparable to normal human HDL”. In series [4] (after an oral dose), the “association with pre-beta HDL and HDL” value is “rapidly associates with pre-beta HDL and HDL”. Besides, the “time after an oral dose at which essentially non-detectable in the circulation” value in [4] (oral dose) amounted to 6 h. In [5], the HDL function entry is listed as “did not significantly improve HDL function”.

As for `CC(C)c1c(C(=O)Nc2ccccc2)c(-c2ccccc2)c(-c2ccc(F)cc2)n1CC[C@@H](O)C[C@@H](O)CC(=O)O` [atorvastatin, reference compound], the HDL function entry in series [5] is on record as “did not improve HDL function”.

Consider `O=C(Nc1ccc([N+](=O)[O-])cc1Cl)c1cc(Cl)ccc1O` [Niclosamide, 2′5-dichloro-4′-nitrosalicylanilide], for which the HDL-inflammatory index result in series [1] (setting [13]) was “ineffective”. In addition, the HDL-inflammatory index result in [1] (FIG. 24: salicylanilide administered without the peptides) is “neither niclosamide nor the new salicylanilides were anti-inflammatory”. In addition, in series [6], the “solubility in aqueous solutions” value is reported as “relatively insoluble”. For the same molecule, in [7], the solubility in water was 5 to 8 µg/mL; the solubility in acetone entry is “soluble in acetone”; the “solubility in ether, ethanol and chloroform” value was “sparingly soluble”. Also, the stability in tablets result in series [7] (moist environments) was “undergoes a biodegradation”. Further, in the series on aortic sinus lesion area, the “lesions in old apoE null mice versus time zero” value is “neither niclosamide nor L-4F without niclosamide significantly reduced lesions”.

With `CC(=O)N[C@@H](CC(=O)O)C(=O)N[C@@H](Cc1c[nH]c2ccccc12)C(=O)N[C@@H](Cc1ccccc1)C(=O)N[C@@H](CCCCN)C(=O)N[C@@H](C)C(=O)N[C@@H](Cc1ccccc1)C(=O)N[C@@H](Cc1ccc(O)cc1)C(=O)N[C@@H](CC(=O)O)C(=O)N[C@@H](CCCCN)C(=O)N[C@H](C(=O)N[C@@H](C)C(=O)N[C@@H](CCC(=O)O)C(=O)N[C@@H](CCCCN)C(=O)N[C@@H](Cc1ccccc1)C(=O)N[C@@H](CCCCN)C(=O)N[C@@H](CCC(=O)O)C(=O)N[C@@H](C)C(=O)N[C@@H](Cc1ccccc1)C(N)=O)C(C)C` [L-4F, Ac-D-W-F-K-A-F-Y-D-K-V-A-E-K-F-K-E-A-F-NH2] (Ac-DWFKAFYDKVAEKFKEAF-NH2), the HDL-inflammatory index result is given as “slightly but significantly improved” in series [1] (setting [13]) and “only able to achieve this degree of efficacy when co-administered with niclosamide” in series [1] (setting [12]). Besides, the “degradation after oral administration” value in series [8] is listed as “rapidly degraded”. Further, the “time after an oral dose at which essentially non-detectable in the circulation” value in series [9] is 6 h. Further, in series [9] (po), the “association with pre-beta HDL and HDL” value was “rapidly associates with pre-beta HDL and HDL”. Besides, the “lesions in old apoE null mice versus time zero” value in the series on aortic sinus lesion area is listed as “neither niclosamide nor L-4F without niclosamide significantly reduced lesions”. The “protective capacity of HDL to inhibit LDL-induced monocyte chemotactic activity” value in [10] is “did not significantly alter”.

For `O=C(Nc1ccc([N+](=O)[O-])cc1Cl)c1cc(Cl)ccc1O` [ethanolamine salt, 5-chloro-salicyl-(2-chloro-4-nitro) anilide 2-aminoethanol salt], the solubility in water in [7] was 180 to 280 µg/mL.

Turning to `O=C(Nc1ccc([N+](=O)[O-])cc1Cl)c1ccc(Cl)cc1O` [BP-1001], in [1], the “HDL-inflammatory index, potency relative to niclosamide” value is given as “more potent than niclosamide”. In addition, the “LDL-inflammatory index, potency relative to niclosamide” value in series [11] is reported as “more potent”.

Take `O=C(Nc1ccc([N+](=O)[O-])cc1Cl)c1ccc(O)c(Cl)c1` [BP-1012]: the “HDL-inflammatory index, potency relative to niclosamide” value in series [1] is reported as “more potent than niclosamide”. Further, in [11], the “LDL-inflammatory index, potency relative to niclosamide” value was “more potent”.

The record behind these values is patent publication US8148328B2, “Salicylanilides enhance oral delivery of therapeutic peptides” (The Regents of the University of California, priority 2006, dated 2012).
